Experimental findings from ChEMBL document CHEMBL5321237 (Eur J Med Chem, 2023) are described below.

Values after ≈ are worked out from the molar mass of the structure shown.

Data set [1] deals with T1, Macrophage colony-stimulating factor 1 receptor (Mus musculus, UniProt P09581).
T1 sequence (P09581 whole entry): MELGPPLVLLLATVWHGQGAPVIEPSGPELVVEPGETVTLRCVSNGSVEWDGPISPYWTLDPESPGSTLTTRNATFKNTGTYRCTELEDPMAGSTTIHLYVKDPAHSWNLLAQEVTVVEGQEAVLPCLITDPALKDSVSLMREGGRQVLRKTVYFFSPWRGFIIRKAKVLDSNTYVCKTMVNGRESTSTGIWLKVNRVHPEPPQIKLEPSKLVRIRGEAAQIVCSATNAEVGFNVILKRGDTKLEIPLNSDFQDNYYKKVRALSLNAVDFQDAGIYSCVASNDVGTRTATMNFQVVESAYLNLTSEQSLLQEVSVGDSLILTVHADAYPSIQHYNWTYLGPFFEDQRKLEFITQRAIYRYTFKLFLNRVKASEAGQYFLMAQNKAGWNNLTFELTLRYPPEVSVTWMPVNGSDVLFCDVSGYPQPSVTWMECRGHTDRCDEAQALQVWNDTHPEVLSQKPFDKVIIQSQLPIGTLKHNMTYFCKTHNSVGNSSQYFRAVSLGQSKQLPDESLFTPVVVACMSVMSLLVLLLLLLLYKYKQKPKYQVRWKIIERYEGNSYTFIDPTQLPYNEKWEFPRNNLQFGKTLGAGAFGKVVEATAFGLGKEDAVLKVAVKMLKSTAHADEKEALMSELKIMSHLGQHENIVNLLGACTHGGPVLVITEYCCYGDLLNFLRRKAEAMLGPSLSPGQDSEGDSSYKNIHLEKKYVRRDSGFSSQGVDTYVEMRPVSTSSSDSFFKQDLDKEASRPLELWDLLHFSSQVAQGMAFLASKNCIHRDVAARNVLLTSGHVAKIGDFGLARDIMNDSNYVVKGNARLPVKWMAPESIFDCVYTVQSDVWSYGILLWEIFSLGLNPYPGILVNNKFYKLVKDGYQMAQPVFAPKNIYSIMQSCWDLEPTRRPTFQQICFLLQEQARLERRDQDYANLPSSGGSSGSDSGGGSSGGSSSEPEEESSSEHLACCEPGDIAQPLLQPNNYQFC
Nature of the data set: Inhibition of CSF1-induced CSF1R signalling in mouse BMDM cells assessed as reduction in ERK1/2 phosphorylation preincubated for 30 mins followed by CSF1 addition and measured after 10 mins. Type of data set: cell-based.

For data set [2], the target named is T2, Ephrin type-B receptor 6 (Homo sapiens) (UniProt O15197).
T2 sequence (whole entry): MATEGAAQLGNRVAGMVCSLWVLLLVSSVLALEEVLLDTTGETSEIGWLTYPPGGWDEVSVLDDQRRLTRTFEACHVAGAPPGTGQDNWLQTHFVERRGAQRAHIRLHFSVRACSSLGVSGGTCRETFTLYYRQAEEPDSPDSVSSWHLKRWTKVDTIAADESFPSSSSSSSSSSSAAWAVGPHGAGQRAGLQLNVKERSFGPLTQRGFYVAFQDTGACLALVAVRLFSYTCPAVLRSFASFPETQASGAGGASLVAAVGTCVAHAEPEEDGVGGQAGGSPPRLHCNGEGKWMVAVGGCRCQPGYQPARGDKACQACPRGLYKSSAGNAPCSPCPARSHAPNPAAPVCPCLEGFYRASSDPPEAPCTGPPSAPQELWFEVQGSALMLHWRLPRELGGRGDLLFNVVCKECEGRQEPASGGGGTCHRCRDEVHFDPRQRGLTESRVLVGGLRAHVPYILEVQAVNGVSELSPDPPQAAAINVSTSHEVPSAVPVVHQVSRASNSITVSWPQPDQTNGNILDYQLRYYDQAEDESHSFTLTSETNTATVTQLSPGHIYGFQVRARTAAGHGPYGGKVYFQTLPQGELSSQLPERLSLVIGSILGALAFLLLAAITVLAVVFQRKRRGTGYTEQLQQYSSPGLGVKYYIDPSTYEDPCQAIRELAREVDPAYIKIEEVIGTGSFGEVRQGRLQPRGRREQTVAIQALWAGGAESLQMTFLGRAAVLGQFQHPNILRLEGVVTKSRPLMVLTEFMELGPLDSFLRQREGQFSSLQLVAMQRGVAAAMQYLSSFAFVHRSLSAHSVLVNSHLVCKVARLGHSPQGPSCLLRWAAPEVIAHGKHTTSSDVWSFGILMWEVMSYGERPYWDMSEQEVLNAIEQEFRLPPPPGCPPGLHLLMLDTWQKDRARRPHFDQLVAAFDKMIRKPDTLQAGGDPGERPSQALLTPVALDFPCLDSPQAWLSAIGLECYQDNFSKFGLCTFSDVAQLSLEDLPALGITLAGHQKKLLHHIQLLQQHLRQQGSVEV
Kind of data set: Competitive binding affinity to human EPHB6 at 500 nM incubated for 1 hr by qPCR analysis relative to control.

In data set [3] the target is Macrophage colony-stimulating factor 1 receptor (Homo sapiens, UniProt P07333). Nature of the data set: Binding affinity to non-autoinhibited form of CSF1R (unknown origin) assessed as dissociation constant incubated for 1 hr by qPCR based Hill equation analysis.
Macrophage colony-stimulating factor 1 receptor (Homo sapiens, UniProt P07333), sequence (P07333 whole entry): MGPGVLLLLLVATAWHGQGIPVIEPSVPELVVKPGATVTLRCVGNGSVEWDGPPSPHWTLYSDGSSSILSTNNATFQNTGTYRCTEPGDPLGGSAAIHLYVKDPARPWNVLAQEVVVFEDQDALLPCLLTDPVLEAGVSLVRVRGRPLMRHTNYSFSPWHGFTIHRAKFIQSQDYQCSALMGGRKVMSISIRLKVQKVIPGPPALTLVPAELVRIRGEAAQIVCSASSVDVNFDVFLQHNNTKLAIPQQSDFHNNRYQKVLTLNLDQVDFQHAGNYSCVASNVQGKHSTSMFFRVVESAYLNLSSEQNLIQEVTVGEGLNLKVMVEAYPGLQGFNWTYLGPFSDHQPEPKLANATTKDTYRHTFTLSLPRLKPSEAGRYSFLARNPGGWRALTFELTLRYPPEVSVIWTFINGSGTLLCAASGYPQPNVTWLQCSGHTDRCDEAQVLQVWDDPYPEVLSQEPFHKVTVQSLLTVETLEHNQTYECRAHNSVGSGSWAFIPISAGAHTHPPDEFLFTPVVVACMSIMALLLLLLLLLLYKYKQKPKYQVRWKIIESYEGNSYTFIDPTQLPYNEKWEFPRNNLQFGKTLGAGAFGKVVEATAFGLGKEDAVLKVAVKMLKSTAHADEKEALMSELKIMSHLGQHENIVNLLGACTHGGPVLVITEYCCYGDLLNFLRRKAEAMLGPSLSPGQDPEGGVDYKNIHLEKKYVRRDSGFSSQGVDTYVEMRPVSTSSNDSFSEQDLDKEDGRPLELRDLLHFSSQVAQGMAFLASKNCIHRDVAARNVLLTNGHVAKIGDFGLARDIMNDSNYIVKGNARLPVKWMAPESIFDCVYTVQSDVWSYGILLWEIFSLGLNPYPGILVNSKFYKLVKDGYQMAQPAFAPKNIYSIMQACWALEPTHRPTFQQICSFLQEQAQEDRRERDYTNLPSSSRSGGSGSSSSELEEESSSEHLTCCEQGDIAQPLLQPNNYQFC
Data set [4] is described as follows: Kinetic aqueous solubility of compound at pH 7.4 at 500 uM incubated for 90 mins by spectrophotometry analysis. The format is physicochemical. The conditions noted are these: buffer, read-out: Kinetic_solubility.

On to `CN(CC1CCCC1)c1ncnc2[nH]c(-c3ccc(CO)cc3)nc12`, for which the IC50 in data set [1] was determined as 40 nM. In addition, the Activity in data set [2] turned out to be 87%. In data set [3], the Kd stood at 220 nM. The solubility kinetic at […], 500 µM in data set [4] amounted to 3.5 µM (≈ 1.18 µg/mL).
